# According to USRE48097E1, “Cephem compounds, their production and use” (priority 2015, dated 2020):
# Where two headings read alike, the source gives them in different places.
# Key:
# Type in all cases: cell-based
# P. aeruginosa 2573 = test: MIC against P. aeruginosa 2573; conditions: Table 2, P. aeruginosa 2573, OXA-10 (Class D)
# Outline: (§1)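 MIC (μg/mL); cephem alone or + β-lactamase inhibitor (e.g. NXL-104); ceftazidime reference.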
# E. cloacae 2710 = test: MIC against E. cloacae 2710; conditions: Table 3, E. cloacae 2710, KPC-3, VIM-1
# Description: (§2) As shown, the foregoing composition was tested for minimum inhibitory concentration (MIC, μg/mL) against bacteria listed in Tables 2-3.
# S. pneumoniae 2404 = test: MIC against S. pneumoniae 2404; conditions: Table 2, S. pneumoniae 2404, Pen S
# Outline: as §1
# S. pneumoniae 2406 = test: MIC against S. pneumoniae 2406; conditions: Table 2, S. pneumoniae 2406, Pen S
# Outline: as §1
# S. pneumoniae 2492 = test: MIC against S. pneumoniae 2492; conditions: Table 2, S. pneumoniae 2492, Pen R
# Outline: as §1
# K. pneumoniae 4104 = test: MIC against K. pneumoniae 4104; conditions: K. pneumoniae 4104, KPC-3, TEM-1
# Description: as §2
# S. pneumoniae ATCC 6301 = test: MIC against S. pneumoniae ATCC 6301; conditions: Table 2, S. pneumoniae ATCC 6301, Pen S
# Outline: as §1
# S. pneumoniae 2403 = test: MIC against S. pneumoniae 2403; conditions: Table 2, S. pneumoniae 2403, Pen S
# Outline: as §1
# K. pneumoniae 2711 = test: MIC against K. pneumoniae 2711; conditions: Table 3, K. pneumoniae 2711, KPC-3, VIM-1
# Description: as §2
# C. freundii 579 = test: MIC against C. freundii 579; conditions: Table 2, C. freundii 579, Caz R, IMP S
# Outline: as §1
# S. pneumoniae 2405 = test: MIC against S. pneumoniae 2405; conditions: Table 2, S. pneumoniae 2405, Pen S
# Outline: as §1
# K. pneumoniae 4105 = test: MIC against K. pneumoniae 4105; conditions: K. pneumoniae 4105, KPC-3, TEM-1, SHV-11
# Description: as §2
# E. cloacae 551 = test: MIC against E. cloacae 551; conditions: Table 2, E. cloacae 551, Caz R, IMP S
# Outline: as §1
# E. coli 4101 = test: MIC against E. coli 4101; conditions: Table 2, E. coli 4101, CTX-M-14, TEM-1
# Outline: as §1
# E. coli 2666 = test: MIC against E. coli 2666; conditions: Table 3, E. coli 2666, KPC-2
# Description: as §2
# C. freundii 2487 = test: MIC against C. freundii 2487; conditions: Table 2, C. freundii 2487, Caz R, IMP S
# Outline: as §1
# K. pneumoniae 4106 = test: MIC against K. pneumoniae 4106; conditions: K. pneumoniae 4106, KPC-3, TEM-1, SHV-12, SHV-141
# Description: as §2
# E. coli 4080 = test: MIC against E. coli 4080; conditions: Table 2, E. coli 4080, TEM-10
# Outline: as §1
# C. freundii 15 = test: MIC against C. freundii 15; conditions: Table 2, C. freundii 15, Caz R, IMP S
# Outline: as §1
# E. cloacae 566 = test: MIC against E. cloacae 566; conditions: Table 2, E. cloacae 566, Caz R, IMP S
# Outline: as §1
# K. pneumoniae 2697 = test: MIC against K. pneumoniae 2697; conditions: Table 2, K. pneumoniae 2697, IMP-4
# Outline: as §1
# E. cloacae 552 = test: MIC against E. cloacae 552; conditions: Table 2, E. cloacae 552, Caz S, IMP S
# Outline: as §1
# E. cloacae 2689 = test: MIC against E. cloacae 2689; conditions: Table 3, E. cloacae 2689, KPC-2
# Description: as §2
# [1] = Enterobacter cloacae, alone, read-out: MIC
# [2] = Streptococcus pneumoniae, alone, read-out: MIC
# [3] = Table 2, in combination with NXL-104
# [4] = Table 3, in combination with NXL-104
# [5] = Klebsiella pneumoniae, alone, read-out: MIC
# [6] = Citrobacter freundii, alone, read-out: MIC
# [7] = Escherichia coli, alone, read-out: MIC
smiles,measurement,setting,value
"CC(C)(O/N=C(\C(=O)N[C@@H]1C(=O)N2C(C(=O)[O-])=C(C[n+]3ccc4c(ccn4Cc4cc(C(=N)N)co4)c3)CS[C@H]12)c1csc(N)n1)C(=O)O [Example 6, (6R,7R)-7-{[(2Z)-2-(2-Amino-1,3-thiazol-4-yl)-2-{[(2-carboxypropan-2-yl)oxy]imino}acetyl]amino}-3-({1-[(4-carbamimidoylfuran-2-yl)methyl]-1H-pyrrolo[3,2-c]pyridin-5-ium-5-yl}methyl)-8-oxo-5-thia-1-azabicyclo[4.2.0]oct-2-ene-2-carboxylate]",MIC,"P. aeruginosa 2573; Pseudomonas aeruginosa, alone, read-out: MIC",2 mg/L
same,MIC,P. aeruginosa 2573; in combination with NXL-104,2.00 mg/L
same,MIC,E. cloacae 2710; [1],> 32 mg/L
same,MIC,E. cloacae 2710; in combination with NXL-104,>32 mg/L
same,MIC,S. pneumoniae 2404; [2],≤ 0.06 mg/L
same,MIC,S. pneumoniae 2404; in combination with NXL-104,≤0.06 mg/L
same,MIC,S. pneumoniae 2406; [2],≤ 0.06 mg/L
same,MIC,S. pneumoniae 2406; in combination with NXL-104,≤0.06 mg/L
same,MIC,S. pneumoniae 2492; [2],2 mg/L
same,MIC,S. pneumoniae 2492; in combination with NXL-104,2.00 mg/L
same,MIC,"K. pneumoniae 4104; Klebsiella pneumoniae, 4104, Table 2, alone, read-out: MIC",32 mg/L
same,MIC,"K. pneumoniae 4104; Klebsiella pneumoniae, 4104, Table 3, alone, read-out: MIC",32 mg/L
same,MIC,K. pneumoniae 4104; [3],2.00 mg/L
same,MIC,K. pneumoniae 4104; [4],0.5 mg/L
same,MIC,"S. pneumoniae ATCC 6301; Streptococcus pneumoniae, ATCC6301, alone, read-out: MIC",≤ 0.06 mg/L
same,MIC,S. pneumoniae ATCC 6301; in combination with NXL-104,≤0.06 mg/L
same,MIC,S. pneumoniae 2403; [2],≤ 0.06 mg/L
same,MIC,S. pneumoniae 2403; in combination with NXL-104,≤0.06 mg/L
same,MIC,K. pneumoniae 2711; [5],4 mg/L
same,MIC,K. pneumoniae 2711; in combination with NXL-104,0.5 mg/L
same,MIC,C. freundii 579; [6],2 mg/L
same,MIC,C. freundii 579; in combination with NXL-104,0.25 mg/L
same,MIC,S. pneumoniae 2405; [2],≤ 0.06 mg/L
same,MIC,S. pneumoniae 2405; in combination with NXL-104,≤0.06 mg/L
same,MIC,"K. pneumoniae 4105; Klebsiella pneumoniae, 4105, Table 2, alone, read-out: MIC",32 mg/L
same,MIC,"K. pneumoniae 4105; Klebsiella pneumoniae, 4105, Table 3, alone, read-out: MIC",32 mg/L
same,MIC,K. pneumoniae 4105; [3],1.00 mg/L
same,MIC,K. pneumoniae 4105; [4],2 mg/L
same,MIC,E. cloacae 551; [1],16 mg/L
same,MIC,E. cloacae 551; in combination with NXL-104,1.00 mg/L
same,MIC,E. coli 4101; [7],0.5 mg/L
same,MIC,E. coli 4101; in combination with NXL-104,≤0.06 mg/L
same,MIC,E. coli 2666; [7],16 mg/L
same,MIC,E. coli 2666; in combination with NXL-104,1 mg/L
same,MIC,C. freundii 2487; [6],8 mg/L
same,MIC,C. freundii 2487; in combination with NXL-104,1.00 mg/L
same,MIC,"K. pneumoniae 4106; Klebsiella pneumoniae, 4106, Table 2, alone, read-out: MIC",16 mg/L
same,MIC,"K. pneumoniae 4106; Klebsiella pneumoniae, 4106, Table 3, alone, read-out: MIC",32 mg/L
same,MIC,K. pneumoniae 4106; [3],1.00 mg/L
same,MIC,K. pneumoniae 4106; [4],2 mg/L
same,MIC,E. coli 4080; [7],16 mg/L
same,MIC,E. coli 4080; in combination with NXL-104,0.50 mg/L
same,MIC,C. freundii 15; [6],8 mg/L
same,MIC,C. freundii 15; in combination with NXL-104,0.50 mg/L
same,MIC,E. cloacae 566; [1],4 mg/L
same,MIC,E. cloacae 566; in combination with NXL-104,0.50 mg/L
same,MIC,K. pneumoniae 2697; [5],16 mg/L
same,MIC,K. pneumoniae 2697; in combination with NXL-104,0.50 mg/L
same,MIC,E. cloacae 552; [1],0.12 mg/L
same,MIC,E. cloacae 552; in combination with NXL-104,0.25 mg/L
same,MIC,E. cloacae 2689; [1],16 mg/L
same,MIC,E. cloacae 2689; in combination with NXL-104,1 mg/L
